Reference: ChEMBL document CHEMBL5465560, “Selectivity Literature for EUbOPEN Chemogenomic Library” (2024)

How the values were obtained:
[1] = biological target: T1, Bone morphogenetic protein receptor type-2 (Homo sapiens) (UniProt Q13873); test: Selectivity interaction (Ambit KINOMEscan and KiNATiv profiling in Jurkat cells) EUB0000090b BMPR2; format: cell-based; settings: at 1 µM
T1 sequence (whole entry): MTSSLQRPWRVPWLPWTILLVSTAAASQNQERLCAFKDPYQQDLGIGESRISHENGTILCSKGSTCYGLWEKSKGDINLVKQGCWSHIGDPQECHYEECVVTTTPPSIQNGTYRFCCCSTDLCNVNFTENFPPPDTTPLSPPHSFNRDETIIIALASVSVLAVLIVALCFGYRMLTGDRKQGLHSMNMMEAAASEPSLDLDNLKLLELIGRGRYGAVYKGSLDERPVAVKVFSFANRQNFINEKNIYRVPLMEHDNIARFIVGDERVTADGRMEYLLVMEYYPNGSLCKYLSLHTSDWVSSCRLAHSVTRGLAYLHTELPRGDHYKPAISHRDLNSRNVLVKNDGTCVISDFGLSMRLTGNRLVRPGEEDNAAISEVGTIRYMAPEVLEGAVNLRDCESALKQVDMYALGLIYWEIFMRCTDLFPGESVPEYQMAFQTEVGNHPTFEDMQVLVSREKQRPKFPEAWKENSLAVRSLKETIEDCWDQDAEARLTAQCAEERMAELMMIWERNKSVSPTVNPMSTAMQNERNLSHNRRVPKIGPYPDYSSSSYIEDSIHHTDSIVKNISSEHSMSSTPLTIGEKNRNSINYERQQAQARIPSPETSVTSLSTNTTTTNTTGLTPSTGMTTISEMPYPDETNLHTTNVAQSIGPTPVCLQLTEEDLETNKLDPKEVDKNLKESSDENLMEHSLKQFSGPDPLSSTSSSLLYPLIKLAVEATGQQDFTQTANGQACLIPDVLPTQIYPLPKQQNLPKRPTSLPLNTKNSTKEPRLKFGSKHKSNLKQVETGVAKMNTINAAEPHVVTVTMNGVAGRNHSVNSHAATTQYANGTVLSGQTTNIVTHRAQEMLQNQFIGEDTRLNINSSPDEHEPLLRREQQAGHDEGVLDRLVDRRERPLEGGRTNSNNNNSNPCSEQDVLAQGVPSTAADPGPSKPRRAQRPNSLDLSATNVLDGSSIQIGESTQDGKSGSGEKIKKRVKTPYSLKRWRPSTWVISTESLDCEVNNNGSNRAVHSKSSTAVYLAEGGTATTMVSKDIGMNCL

[2] = biological target: T2, Serine/threonine-protein kinase Sgk3 (Homo sapiens) (UniProt Q96BR1); test: Selectivity interaction (ActivX KiNativ screen (kinase selectivity in THP-1 cell lysates)) EUB0000639a SGK3; format: subcellular; settings: lysate, at 5 µM
T2 sequence (whole entry): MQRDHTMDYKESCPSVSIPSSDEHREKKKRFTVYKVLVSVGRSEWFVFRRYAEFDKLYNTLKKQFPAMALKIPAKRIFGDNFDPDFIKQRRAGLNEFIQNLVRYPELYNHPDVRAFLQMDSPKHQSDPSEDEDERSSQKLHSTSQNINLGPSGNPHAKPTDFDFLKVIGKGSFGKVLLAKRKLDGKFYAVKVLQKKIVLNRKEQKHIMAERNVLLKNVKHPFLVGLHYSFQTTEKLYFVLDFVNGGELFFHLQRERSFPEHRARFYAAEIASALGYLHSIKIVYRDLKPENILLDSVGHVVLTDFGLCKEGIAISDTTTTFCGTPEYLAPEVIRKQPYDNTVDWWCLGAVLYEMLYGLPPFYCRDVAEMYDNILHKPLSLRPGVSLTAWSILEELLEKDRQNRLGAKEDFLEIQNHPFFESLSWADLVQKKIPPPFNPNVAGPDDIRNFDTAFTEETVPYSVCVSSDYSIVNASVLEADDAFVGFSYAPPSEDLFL

[3] = biological target: Kappa-type opioid receptor (Homo sapiens, UniProt P41145); test: Selectivity interaction (Opiate Kappa receptor assay, human recombinant ) EUB0000877a OPRK1
[4] = biological target: Serine/threonine-protein kinase Nek4 (Homo sapiens) (UniProt P51957); test: Selectivity interaction (KinomeScan (DiscoverX)) EUB0000695a NEK4; settings: at 100 nM
[5] = biological target: T3, TGF-beta receptor type-1 (Homo sapiens) (UniProt P36897); settings: at 10 µM
T3 sequence (whole entry): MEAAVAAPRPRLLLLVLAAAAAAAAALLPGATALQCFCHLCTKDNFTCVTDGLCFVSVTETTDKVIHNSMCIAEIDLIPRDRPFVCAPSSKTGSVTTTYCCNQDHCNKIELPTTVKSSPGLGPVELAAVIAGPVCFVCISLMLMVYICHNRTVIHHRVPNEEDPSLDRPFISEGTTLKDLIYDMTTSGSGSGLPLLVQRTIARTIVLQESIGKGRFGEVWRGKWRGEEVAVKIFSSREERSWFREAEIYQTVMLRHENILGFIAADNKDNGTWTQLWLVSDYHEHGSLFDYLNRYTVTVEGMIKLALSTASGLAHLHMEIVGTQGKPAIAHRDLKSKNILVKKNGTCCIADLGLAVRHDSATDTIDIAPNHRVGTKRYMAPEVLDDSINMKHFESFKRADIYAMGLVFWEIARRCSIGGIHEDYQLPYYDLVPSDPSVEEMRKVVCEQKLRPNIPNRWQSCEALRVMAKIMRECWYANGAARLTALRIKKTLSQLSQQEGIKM

[6] = biological target: T4, Hormonally up-regulated neu tumor-associated kinase (Homo sapiens) (UniProt P57058); test: Selectivity interaction (KinomeScan (DiscoverX)) EUB0000666a HUNK; settings: at 10 µM
T4 sequence (whole entry): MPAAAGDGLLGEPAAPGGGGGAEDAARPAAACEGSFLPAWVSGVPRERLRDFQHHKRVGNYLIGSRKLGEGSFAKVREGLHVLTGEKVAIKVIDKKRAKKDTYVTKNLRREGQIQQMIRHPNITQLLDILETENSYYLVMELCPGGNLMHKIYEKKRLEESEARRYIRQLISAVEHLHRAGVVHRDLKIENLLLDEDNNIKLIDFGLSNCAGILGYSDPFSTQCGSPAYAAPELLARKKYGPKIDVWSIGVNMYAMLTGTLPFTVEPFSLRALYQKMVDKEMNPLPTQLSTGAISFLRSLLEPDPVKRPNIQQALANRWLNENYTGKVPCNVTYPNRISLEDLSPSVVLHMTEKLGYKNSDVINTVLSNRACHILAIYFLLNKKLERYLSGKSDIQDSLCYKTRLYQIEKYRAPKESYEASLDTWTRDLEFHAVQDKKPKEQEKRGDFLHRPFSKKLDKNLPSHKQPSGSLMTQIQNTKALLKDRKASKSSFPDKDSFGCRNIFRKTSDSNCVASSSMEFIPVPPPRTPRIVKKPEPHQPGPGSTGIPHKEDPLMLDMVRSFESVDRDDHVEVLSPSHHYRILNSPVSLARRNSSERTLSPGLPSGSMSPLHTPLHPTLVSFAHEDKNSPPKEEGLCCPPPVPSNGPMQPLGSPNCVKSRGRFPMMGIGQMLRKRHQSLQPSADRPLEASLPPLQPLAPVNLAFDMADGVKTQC

Chain of Kappa-type opioid receptor (P41145 whole entry): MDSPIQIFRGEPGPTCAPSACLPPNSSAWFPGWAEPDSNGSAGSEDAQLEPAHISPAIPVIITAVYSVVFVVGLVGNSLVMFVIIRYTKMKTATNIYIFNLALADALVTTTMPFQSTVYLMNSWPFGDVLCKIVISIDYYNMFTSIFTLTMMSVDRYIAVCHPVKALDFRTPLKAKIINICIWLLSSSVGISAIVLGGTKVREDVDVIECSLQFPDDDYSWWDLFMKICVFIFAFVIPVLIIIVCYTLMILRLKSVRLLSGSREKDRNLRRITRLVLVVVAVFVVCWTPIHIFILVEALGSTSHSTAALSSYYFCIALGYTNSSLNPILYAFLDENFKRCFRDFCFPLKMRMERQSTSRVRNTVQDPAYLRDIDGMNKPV
Chain of Serine/threonine-protein kinase Nek4 (Homo sapiens) (P51957 whole entry, looked up): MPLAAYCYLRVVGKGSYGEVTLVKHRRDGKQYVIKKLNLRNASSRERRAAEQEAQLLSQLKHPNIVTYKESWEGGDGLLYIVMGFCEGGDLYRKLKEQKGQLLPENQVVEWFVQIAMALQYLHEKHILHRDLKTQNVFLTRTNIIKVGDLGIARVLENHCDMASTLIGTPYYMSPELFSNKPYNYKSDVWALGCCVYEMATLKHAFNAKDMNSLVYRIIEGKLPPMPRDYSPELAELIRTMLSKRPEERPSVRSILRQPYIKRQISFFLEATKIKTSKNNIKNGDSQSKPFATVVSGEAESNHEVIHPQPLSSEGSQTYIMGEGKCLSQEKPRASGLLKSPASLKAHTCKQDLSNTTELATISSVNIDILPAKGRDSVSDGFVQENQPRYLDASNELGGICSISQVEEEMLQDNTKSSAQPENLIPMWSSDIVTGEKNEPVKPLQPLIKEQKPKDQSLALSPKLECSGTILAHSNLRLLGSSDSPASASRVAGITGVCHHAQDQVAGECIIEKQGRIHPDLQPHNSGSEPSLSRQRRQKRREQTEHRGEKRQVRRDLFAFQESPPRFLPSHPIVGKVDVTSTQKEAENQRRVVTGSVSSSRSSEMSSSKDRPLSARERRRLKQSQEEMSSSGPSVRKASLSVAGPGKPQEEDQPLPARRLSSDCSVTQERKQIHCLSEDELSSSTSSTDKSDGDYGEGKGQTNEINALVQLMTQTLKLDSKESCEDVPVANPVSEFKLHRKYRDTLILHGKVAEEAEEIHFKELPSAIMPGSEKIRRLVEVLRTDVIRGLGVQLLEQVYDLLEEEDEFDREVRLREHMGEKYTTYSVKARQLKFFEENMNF

SMILES: CN(C)C/C=C/C(=O)Nc1ccc(C(=O)N2CCCC(Nc3ncc(Cl)c(-c4c[nH]c5ccccc45)n3)C2)cc1 (stereo unspecified)
- % of control [1]: 100%

SMILES: CC[C@@H]1[C@H](F)C(=O)N[C@@H]1COc1nccc2cc(C(N)=O)c(OC)cc12 [ZIMLOVISERTIB]
- % of inhibition [2]: -1.4%

SMILES: CCC(=O)N1CC[C@H](Nc2ncnc3c2CN(c2cnc(OC)c(C(F)(F)F)c2)CC3)C1 [LENIOLISIB]
- IC50 [3]: > 30 µM

SMILES: Cc1cc(F)c(C(=O)Nc2cccc(-c3nncn3C(C)C)n2)cc1-n1cnc(C2CC2)c1
- % of control [4]: 100%

SMILES: CCN(CC)CCCCNc1ncc2cc(-c3cc(OC)cc(OC)c3)c(NC(=O)NC(C)(C)C)nc2n1
- % of control [5]: 100%

SMILES: O=C(NOC[C@H](O)CO)c1ccc(F)c(F)c1Nc1ccc(I)cc1F
- % of control [6]: 100%
